In ChEMBL document CHEMBL1649258, “Combined inactivation of lon and ycgE decreases multidrug susceptibility by reducing the amount of OmpF porin in Escherichia coli” (2009) one finds MIC data, which are given here for three compounds.

In brackets after ≈: the same amount, converted by molar mass.

The test system of the first assay is Escherichia coli. The assay is described as follows: Antibacterial activity against wild-type Escherichia coli AG100 harboring IS186 insertion in lon3 gene and Tn5 insertion in ycgE gene at 26 degC by Etest method. Format: functional.
On to `CC1(C)S[C@@H]2[C@H](NC(=O)[C@H](N)c3ccccc3)C(=O)N2[C@H]1C(=O)O` [AMPICILLIN], for which the MIC (commonly the lowest concentration found to suppress growth) is 1.8 µg/mL (≈ 5.15 µM).
On the same count and under the same terms, with `CO[C@@]1(NC(=O)Cc2cccs2)C(=O)N2C(C(=O)O)=C(COC(N)=O)CS[C@@H]21` [CEFOXITIN] the figure was 4 µg/mL (≈ 9.36 µM); with `CC(=O)OCC1=C(C(=O)O)N2C(=O)[C@@H](NC(=O)Cc3cccs3)[C@H]2SC1` [CEPHALOTHIN], 6 µg/mL (≈ 15.1 µM).

The subject of the next assay is Escherichia coli. The assay is described as follows: Antibacterial activity against wild-type Escherichia coli AG100 harboring Tn5 insertion in ycgE gene at 26 degC by Etest method. In kind it is functional.
As to `CC1(C)S[C@@H]2[C@H](NC(=O)[C@H](N)c3ccccc3)C(=O)N2[C@H]1C(=O)O` [AMPICILLIN], the MIC came to 0.75 µg/mL (≈ 2.15 µM).
On to `CO[C@@]1(NC(=O)Cc2cccs2)C(=O)N2C(C(=O)O)=C(COC(N)=O)CS[C@@H]21` [CEFOXITIN], for which the minimum inhibitory concentration (MIC) worked out at 0.92 µg/mL (≈ 2.15 µM).
Turning to `CC(=O)OCC1=C(C(=O)O)N2C(=O)[C@@H](NC(=O)Cc3cccs3)[C@H]2SC1` [CEPHALOTHIN], the MIC amounted to 1.3 µg/mL (≈ 3.28 µM).

The next assay concerns Escherichia coli. The experiment in a line: Antibacterial activity against wild-type Escherichia coli AG100 at 26 degC by Etest method. In kind it is functional.
For `CC1(C)S[C@@H]2[C@H](NC(=O)[C@H](N)c3ccccc3)C(=O)N2[C@H]1C(=O)O` [AMPICILLIN], the MIC was 0.75 µg/mL (≈ 2.15 µM).
On to `CO[C@@]1(NC(=O)Cc2cccs2)C(=O)N2C(C(=O)O)=C(COC(N)=O)CS[C@@H]21` [CEFOXITIN], for which the MIC was 0.75 µg/mL (≈ 1.75 µM).
Still for that read-out and setting: with `CC(=O)OCC1=C(C(=O)O)N2C(=O)[C@@H](NC(=O)Cc3cccs3)[C@H]2SC1` [CEPHALOTHIN] the figure was 1 µg/mL (≈ 2.52 µM).

The next assay deals with Escherichia coli. The experiment in a line: Antibacterial activity against wild-type Escherichia coli AG100 harboring IS186 insertion in lon3 gene, Tn5 insertion in ycgE gene and plasmid pMPM carrying ompF gene at 26 degC by Etest method. In kind it is functional.
On to `CC1(C)S[C@@H]2[C@H](NC(=O)[C@H](N)c3ccccc3)C(=O)N2[C@H]1C(=O)O` [AMPICILLIN], for which the MIC is 1.5 µg/mL (≈ 4.29 µM).
On the same count and under the same terms, the result for `CO[C@@]1(NC(=O)Cc2cccs2)C(=O)N2C(C(=O)O)=C(COC(N)=O)CS[C@@H]21` [CEFOXITIN] reads 1 µg/mL (≈ 2.34 µM); that for `CC(=O)OCC1=C(C(=O)O)N2C(=O)[C@@H](NC(=O)Cc3cccs3)[C@H]2SC1` [CEPHALOTHIN], 2 µg/mL (≈ 5.04 µM).

The test system of a further assay is Escherichia coli. The experiment in a line: Antibacterial activity against wild-type Escherichia coli AG100 harboring IS186 insertion in lon3 gene at 37 degC by Etest method. Format: functional.
Compound `CC1(C)S[C@@H]2[C@H](NC(=O)[C@H](N)c3ccccc3)C(=O)N2[C@H]1C(=O)O` [AMPICILLIN] came in with a minimal inhibitory concentration (MIC) of 1 µg/mL (≈ 2.86 µM).
Regarding `CO[C@@]1(NC(=O)Cc2cccs2)C(=O)N2C(C(=O)O)=C(COC(N)=O)CS[C@@H]21` [CEFOXITIN], 1.7 µg/mL (≈ 3.98 µM) was the least that counted as inhibitory (MIC).
`CC(=O)OCC1=C(C(=O)O)N2C(=O)[C@@H](NC(=O)Cc3cccs3)[C@H]2SC1` [CEPHALOTHIN] showed a minimal inhibitory concentration (MIC) of 2 µg/mL (≈ 5.04 µM).

For a further assay, the system named is Escherichia coli. The assay is described as follows: Antibacterial activity against wild-type Escherichia coli AG100 at 37 degC by Etest method. In kind it is functional.
`CC1(C)S[C@@H]2[C@H](NC(=O)[C@H](N)c3ccccc3)C(=O)N2[C@H]1C(=O)O` [AMPICILLIN] yielded an MIC of 1 µg/mL (≈ 2.86 µM).
On the same count and under the same terms, the result for `CO[C@@]1(NC(=O)Cc2cccs2)C(=O)N2C(C(=O)O)=C(COC(N)=O)CS[C@@H]21` [CEFOXITIN] reads 1.5 µg/mL (≈ 3.51 µM).
Take `CC(=O)OCC1=C(C(=O)O)N2C(=O)[C@@H](NC(=O)Cc3cccs3)[C@H]2SC1` [CEPHALOTHIN]: the lowest concentration to inhibit growth (MIC) was 2 µg/mL (≈ 5.04 µM).

The test system of the next assay is Escherichia coli. The assay is described as follows: Antibacterial activity against wild-type Escherichia coli AG100 harboring IS186 insertion in lon3 gene, Tn5 insertion in ycgE gene and plasmid pMPM at 26 degC by Etest method. In kind it is functional.
`CC1(C)S[C@@H]2[C@H](NC(=O)[C@H](N)c3ccccc3)C(=O)N2[C@H]1C(=O)O` [AMPICILLIN] yielded an MIC of 2.3 µg/mL (≈ 6.58 µM).
`CO[C@@]1(NC(=O)Cc2cccs2)C(=O)N2C(C(=O)O)=C(COC(N)=O)CS[C@@H]21` [CEFOXITIN]: 6 µg/mL (≈ 14 µM) was the least that counted as inhibitory (MIC).
`CC(=O)OCC1=C(C(=O)O)N2C(=O)[C@@H](NC(=O)Cc3cccs3)[C@H]2SC1` [CEPHALOTHIN]: the MIC stood at 5.3 µg/mL (≈ 13.4 µM).

A further assay deals with Escherichia coli. The experiment in a line: Antibacterial activity against ompF-deficient Escherichia coli AG100 harboring IS186 insertion in lon3 gene and Tn5 insertion in ycgE gene at 26 degC by Etest method. In kind it is functional.
On to `CC1(C)S[C@@H]2[C@H](NC(=O)[C@H](N)c3ccccc3)C(=O)N2[C@H]1C(=O)O` [AMPICILLIN], for which the MIC was determined as 2.3 µg/mL (≈ 6.58 µM).
Consider `CO[C@@]1(NC(=O)Cc2cccs2)C(=O)N2C(C(=O)O)=C(COC(N)=O)CS[C@@H]21` [CEFOXITIN], for which inhibition of growth (MIC) required 4.7 µg/mL (≈ 11 µM).
With `CC(=O)OCC1=C(C(=O)O)N2C(=O)[C@@H](NC(=O)Cc3cccs3)[C@H]2SC1` [CEPHALOTHIN], the MIC came out at 6.7 µg/mL (≈ 16.9 µM).

In another assay the test system is Escherichia coli. The assay is described as follows: Antibacterial activity against wild-type Escherichia coli AG100 harboring marR mutant gene at 37 degC by Etest method. In kind it is functional.
`CC1(C)S[C@@H]2[C@H](NC(=O)[C@H](N)c3ccccc3)C(=O)N2[C@H]1C(=O)O` [AMPICILLIN] showed an MIC of 3 µg/mL (≈ 8.59 µM).
As to `CO[C@@]1(NC(=O)Cc2cccs2)C(=O)N2C(C(=O)O)=C(COC(N)=O)CS[C@@H]21` [CEFOXITIN], the MIC worked out at 6 µg/mL (≈ 14 µM).
The same measure, in the same setting: the result for `CC(=O)OCC1=C(C(=O)O)N2C(=O)[C@@H](NC(=O)Cc3cccs3)[C@H]2SC1` [CEPHALOTHIN] reads 9.3 µg/mL (≈ 23.5 µM).

Another assay deals with Escherichia coli. The experiment in a line: Antibacterial activity against ompF-deficient Escherichia coli AG100 at 26 degC by Etest method. Format: functional.
`CC1(C)S[C@@H]2[C@H](NC(=O)[C@H](N)c3ccccc3)C(=O)N2[C@H]1C(=O)O` [AMPICILLIN] gave an MIC of 1.5 µg/mL (≈ 4.29 µM).
In turn, `CO[C@@]1(NC(=O)Cc2cccs2)C(=O)N2C(C(=O)O)=C(COC(N)=O)CS[C@@H]21` [CEFOXITIN] returned an MIC of 3 µg/mL (≈ 7.02 µM).
Same read-out and setting: with `CC(=O)OCC1=C(C(=O)O)N2C(=O)[C@@H](NC(=O)Cc3cccs3)[C@H]2SC1` [CEPHALOTHIN] the figure was 4.7 µg/mL (≈ 11.9 µM).

In a further assay the test system is Escherichia coli. The assay is described as follows: Antibacterial activity against wild-type Escherichia coli AG100 harboring IS186 insertion in lon3 gene at 26 degC by Etest method. In kind it is functional.
In turn, `CC1(C)S[C@@H]2[C@H](NC(=O)[C@H](N)c3ccccc3)C(=O)N2[C@H]1C(=O)O` [AMPICILLIN] yielded an MIC of 0.83 µg/mL (≈ 2.38 µM).
Compound `CO[C@@]1(NC(=O)Cc2cccs2)C(=O)N2C(C(=O)O)=C(COC(N)=O)CS[C@@H]21` [CEFOXITIN] showed a minimal inhibitory concentration (MIC) of 0.92 µg/mL (≈ 2.15 µM).
Same read-out and setting: the result for `CC(=O)OCC1=C(C(=O)O)N2C(=O)[C@@H](NC(=O)Cc3cccs3)[C@H]2SC1` [CEPHALOTHIN] reads 1.2 µg/mL (≈ 3.03 µM).

A further assay deals with Escherichia coli. The assay is described as follows: Antibacterial activity against ompF-deficient Escherichia coli AG100 harboring IS186 insertion in lon3 gene and Tn5 insertion in ycgE gene at 37 degC by Etest method. In kind it is functional.
`CC1(C)S[C@@H]2[C@H](NC(=O)[C@H](N)c3ccccc3)C(=O)N2[C@H]1C(=O)O` [AMPICILLIN] came in with a minimum inhibitory concentration (MIC) of 2.2 µg/mL (≈ 6.3 µM).
On the same count and under the same terms, with `CO[C@@]1(NC(=O)Cc2cccs2)C(=O)N2C(C(=O)O)=C(COC(N)=O)CS[C@@H]21` [CEFOXITIN] the figure was 3 µg/mL (≈ 7.02 µM).
Same read-out and setting: the result for `CC(=O)OCC1=C(C(=O)O)N2C(=O)[C@@H](NC(=O)Cc3cccs3)[C@H]2SC1` [CEPHALOTHIN] reads 4.7 µg/mL (≈ 11.9 µM).

Another assay concerns Escherichia coli. The assay is described as follows: Antibacterial activity against wild-type Escherichia coli AG100 harboring IS186 insertion in lon3 gene and Tn5 insertion in ycgE gene at 37 degC by Etest method. In kind it is functional.
`CC1(C)S[C@@H]2[C@H](NC(=O)[C@H](N)c3ccccc3)C(=O)N2[C@H]1C(=O)O` [AMPICILLIN] returned an MIC of 1.7 µg/mL (≈ 4.87 µM).
On the same count and under the same terms, with `CO[C@@]1(NC(=O)Cc2cccs2)C(=O)N2C(C(=O)O)=C(COC(N)=O)CS[C@@H]21` [CEFOXITIN] the figure was 4 µg/mL (≈ 9.36 µM); with `CC(=O)OCC1=C(C(=O)O)N2C(=O)[C@@H](NC(=O)Cc3cccs3)[C@H]2SC1` [CEPHALOTHIN], 4.7 µg/mL (≈ 11.9 µM).

The test system of the next assay is Escherichia coli. The experiment in a line: Antibacterial activity against wild-type Escherichia coli AG100 harboring Tn5 insertion in ycgE gene at 37 degC by Etest method. In kind it is functional.
Take `CC1(C)S[C@@H]2[C@H](NC(=O)[C@H](N)c3ccccc3)C(=O)N2[C@H]1C(=O)O` [AMPICILLIN]: the lowest concentration to inhibit growth (MIC) was 1 µg/mL (≈ 2.86 µM).
On the same count and under the same terms, the result for `CO[C@@]1(NC(=O)Cc2cccs2)C(=O)N2C(C(=O)O)=C(COC(N)=O)CS[C@@H]21` [CEFOXITIN] reads 1.7 µg/mL (≈ 3.98 µM).
Same read-out and setting: the result for `CC(=O)OCC1=C(C(=O)O)N2C(=O)[C@@H](NC(=O)Cc3cccs3)[C@H]2SC1` [CEPHALOTHIN] reads 2.3 µg/mL (≈ 5.8 µM).

Another assay deals with Escherichia coli. The experiment in a line: Antibacterial activity against wild-type Escherichia coli AG100 harboring marR mutant gene at 26 degC by Etest method. In kind it is functional.
Turning to `CC1(C)S[C@@H]2[C@H](NC(=O)[C@H](N)c3ccccc3)C(=O)N2[C@H]1C(=O)O` [AMPICILLIN], 4 µg/mL (≈ 11.4 µM) was the least that counted as inhibitory (MIC).
On the same count and under the same terms, with `CO[C@@]1(NC(=O)Cc2cccs2)C(=O)N2C(C(=O)O)=C(COC(N)=O)CS[C@@H]21` [CEFOXITIN] the figure was 7.3 µg/mL (≈ 17.1 µM); with `CC(=O)OCC1=C(C(=O)O)N2C(=O)[C@@H](NC(=O)Cc3cccs3)[C@H]2SC1` [CEPHALOTHIN], 10.7 µg/mL (≈ 27 µM).

In another assay the test system is Escherichia coli. The assay is described as follows: Antibacterial activity against ompF-deficient Escherichia coli AG100 at 37 degC by Etest method. Format: functional.
The compound `CC1(C)S[C@@H]2[C@H](NC(=O)[C@H](N)c3ccccc3)C(=O)N2[C@H]1C(=O)O` [AMPICILLIN] came in with an MIC of 1.83 µg/mL (≈ 5.24 µM).
In turn, `CO[C@@]1(NC(=O)Cc2cccs2)C(=O)N2C(C(=O)O)=C(COC(N)=O)CS[C@@H]21` [CEFOXITIN] displayed a minimum inhibitory concentration (MIC) of 3 µg/mL (≈ 7.02 µM).
Take `CC(=O)OCC1=C(C(=O)O)N2C(=O)[C@@H](NC(=O)Cc3cccs3)[C@H]2SC1` [CEPHALOTHIN]: the MIC was found to be 4.7 µg/mL (≈ 11.9 µM).
